This is an account of results in PMC7066191, “Exploiting loss of heterozygosity for allele-selective colorectal cancer chemotherapy” (Nature Communications, 2020).

Assay in all cases: biochemical
Common to all, as to design: scanMAX competition binding; kinase recovered on immobilized ligand quantified by qPCR, per cent of control
Holding throughout (settings): read-out: APA (POC)

For one assay, the target named is AAK1 (Homo sapiens, UniProt Q2M2I8). The method, then:
(§1) The binding affinities of APA and NAPA were evaluated in the scanMAX^sm Kinase Assay Panel (DiscoverX) at a final concentration of 10 µM. The compounds were tested for steric or allosteric binding to kinases in solution. The kinase was captured from the solution through an immobilized kinase-specific ligand and the kinase recovery was quantified. The amount of recovered kinase in the presence or absence of APA or NAPA was measured by quantitative PCR compared with the kinase capture in absence of the compound. Any compound reducing the binding affinity of a kinase to the respective immobilized ligand was scored as a potential hit, and the binding affinity of the compound toward a kinase is interpreted as the difference between the kinase recovery in the absence and presence of the compound. The inhibitory binding constants (Kd) of APA and NAPA to AURKA were evaluated in a KdELECT Kinase Assay (DiscoverX). […] Data acquisition followed the same methodology as for the scanMAX^sm Kinase Assay Panel. 6 Supplementary Figure 4. Kinome inhibition profiles of APA and its NAT2 metabolite NAPA identifies preferential APA kinase targets and differential binding to AURKA a The human kinome was assessed for binding affinity to APA and NAPA at 10 µM concentration (468 kinases in the scanMAX Kinase Assay Panel, DiscoverX). The family stratification of kinases is shown as a cladogram. Circles visualize the binding affinity of NAPA and APA towards each kinase with a higher intensity of blue corresponding to a higher binding affinity. […] One single data point from one experiment at a concentration 18.5 µM of APA was excluded as an outlier. c Thermal shift assay for human recombinant AURKA in the presence of APA and the selective inhibitor S1451. Melting temperatures were obtained by calculating the first derivative of the tryptophan fluorescence ratio at 350 nm and 330 nm and are shown for AURKA in the presence of S1451 (blue) and APA (yellow). Structural similarities between APA and kinase inhibitors[27] prompted investigation of protein kinases as mediators of APA toxicity. […] To enrich for kinase interactions that could explain the preferential killing of slow NAT2 cells, we compared the binding affinity of each kinase with APA and NAPA, selected 44 targets with preferential binding to APA and excluded kinases non-essential for cell survival and those not expressed in CRC cells (Supplementary Fig. 4A, Supplementary Table 4). […] The growth inhibition of RKO and DLD-1 following siRNA-mediated AURKA knockdown (Figs. 3c, d) reflected the relative efficiency of protein downregulation (Supplementary Fig. 5C, D). […] (Supplementary Fig. 4C). AURKA regulates cell cycle progression through association with other centrosome and spindle-associated proteins. Its activation requires auto-phosphorylation at Thr288 and ensures spindle pole integrity, centrosome duplication as well as adequate chromosomal alignment and segregation, while its inhibition leads to multipolar spindles with acentrosomal poles[28],[31]. […] S1451 reduced the fraction of pAURKA levels by >90% regardless of NAT2 expression (Fig. 3f and Su

For another assay, the target named is ABL2 (Homo sapiens, UniProt P42684). The method, then:
as §1

The next assay addresses CDK7 (Homo sapiens, UniProt P50613). The method, then: as §1
Another assay concerns the target DYRK1A (Homo sapiens, UniProt Q13627). The method, then: as §1
A further assay has as its target DYRK2 (Homo sapiens, UniProt Q92630). The method, then:
as §1

For the next assay, the target named is T1, GSG2 (Homo sapiens, UniProt Q8TF76).
T1 construct: gene HASPIN
T1 sequence (Q8TF76 whole entry): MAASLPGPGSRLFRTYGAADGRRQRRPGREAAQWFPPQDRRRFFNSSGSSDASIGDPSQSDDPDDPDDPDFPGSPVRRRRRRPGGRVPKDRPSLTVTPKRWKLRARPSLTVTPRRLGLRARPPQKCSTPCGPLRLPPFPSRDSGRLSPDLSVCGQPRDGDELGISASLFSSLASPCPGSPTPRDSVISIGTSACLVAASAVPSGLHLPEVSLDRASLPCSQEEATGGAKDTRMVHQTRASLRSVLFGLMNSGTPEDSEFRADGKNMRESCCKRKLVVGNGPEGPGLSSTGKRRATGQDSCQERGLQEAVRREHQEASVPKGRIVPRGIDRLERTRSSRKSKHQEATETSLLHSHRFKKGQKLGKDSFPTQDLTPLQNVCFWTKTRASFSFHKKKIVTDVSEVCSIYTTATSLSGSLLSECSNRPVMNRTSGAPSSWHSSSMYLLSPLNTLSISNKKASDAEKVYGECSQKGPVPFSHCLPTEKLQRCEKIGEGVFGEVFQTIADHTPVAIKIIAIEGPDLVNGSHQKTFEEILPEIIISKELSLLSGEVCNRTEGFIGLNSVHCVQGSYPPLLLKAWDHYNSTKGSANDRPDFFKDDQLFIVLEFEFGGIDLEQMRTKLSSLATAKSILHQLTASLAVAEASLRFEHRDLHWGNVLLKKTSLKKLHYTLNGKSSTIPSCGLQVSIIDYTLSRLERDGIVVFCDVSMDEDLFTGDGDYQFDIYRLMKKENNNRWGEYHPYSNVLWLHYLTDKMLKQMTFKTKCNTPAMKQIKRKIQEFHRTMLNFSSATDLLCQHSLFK
The method, then:
as §1

A further assay deals with KDR (Homo sapiens, UniProt P35968). The method, then:
as §1

Another assay deals with NTRK3 (Homo sapiens, UniProt Q16288). The method, then: as §1
NTRK3, sequence (Q16288 whole entry): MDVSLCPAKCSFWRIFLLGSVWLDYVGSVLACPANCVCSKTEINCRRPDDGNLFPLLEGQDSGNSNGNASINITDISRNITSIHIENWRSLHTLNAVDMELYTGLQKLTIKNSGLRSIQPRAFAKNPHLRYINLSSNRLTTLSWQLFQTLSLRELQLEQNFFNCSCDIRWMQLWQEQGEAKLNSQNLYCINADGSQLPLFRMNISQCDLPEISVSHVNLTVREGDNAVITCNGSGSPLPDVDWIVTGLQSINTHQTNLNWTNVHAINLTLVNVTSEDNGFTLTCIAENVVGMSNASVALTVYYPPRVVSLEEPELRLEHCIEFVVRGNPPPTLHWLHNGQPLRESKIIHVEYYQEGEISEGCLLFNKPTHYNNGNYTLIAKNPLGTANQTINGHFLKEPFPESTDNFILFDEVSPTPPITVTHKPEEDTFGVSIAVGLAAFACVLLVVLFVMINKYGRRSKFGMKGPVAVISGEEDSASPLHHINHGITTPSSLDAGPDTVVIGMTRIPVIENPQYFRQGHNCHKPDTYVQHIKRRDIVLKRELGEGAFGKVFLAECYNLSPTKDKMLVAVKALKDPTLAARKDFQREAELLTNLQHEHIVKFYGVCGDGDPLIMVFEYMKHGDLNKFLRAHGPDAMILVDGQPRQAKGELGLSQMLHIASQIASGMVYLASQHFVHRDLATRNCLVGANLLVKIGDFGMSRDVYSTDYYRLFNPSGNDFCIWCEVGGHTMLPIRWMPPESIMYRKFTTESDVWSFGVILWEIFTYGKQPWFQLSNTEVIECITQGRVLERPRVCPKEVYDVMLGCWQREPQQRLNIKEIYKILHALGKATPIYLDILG
For the next assay, the target named is PIP4K2B (Homo sapiens, UniProt P78356). The method, then:
as §1

The target in another assay is PIP5K1A (Homo sapiens, UniProt Q99755). The method, then:
as §1

For the next assay, the target named is RIOK3 (Homo sapiens, UniProt O14730). The method, then:
as §1

The next assay deals with T2, RPS6KA1_Dom1 (Homo sapiens, UniProt Q15418).
T2 construct: gene RPS6KA1; Kin.Dom.1 N-terminal
T2 sequence (Q15418 whole entry): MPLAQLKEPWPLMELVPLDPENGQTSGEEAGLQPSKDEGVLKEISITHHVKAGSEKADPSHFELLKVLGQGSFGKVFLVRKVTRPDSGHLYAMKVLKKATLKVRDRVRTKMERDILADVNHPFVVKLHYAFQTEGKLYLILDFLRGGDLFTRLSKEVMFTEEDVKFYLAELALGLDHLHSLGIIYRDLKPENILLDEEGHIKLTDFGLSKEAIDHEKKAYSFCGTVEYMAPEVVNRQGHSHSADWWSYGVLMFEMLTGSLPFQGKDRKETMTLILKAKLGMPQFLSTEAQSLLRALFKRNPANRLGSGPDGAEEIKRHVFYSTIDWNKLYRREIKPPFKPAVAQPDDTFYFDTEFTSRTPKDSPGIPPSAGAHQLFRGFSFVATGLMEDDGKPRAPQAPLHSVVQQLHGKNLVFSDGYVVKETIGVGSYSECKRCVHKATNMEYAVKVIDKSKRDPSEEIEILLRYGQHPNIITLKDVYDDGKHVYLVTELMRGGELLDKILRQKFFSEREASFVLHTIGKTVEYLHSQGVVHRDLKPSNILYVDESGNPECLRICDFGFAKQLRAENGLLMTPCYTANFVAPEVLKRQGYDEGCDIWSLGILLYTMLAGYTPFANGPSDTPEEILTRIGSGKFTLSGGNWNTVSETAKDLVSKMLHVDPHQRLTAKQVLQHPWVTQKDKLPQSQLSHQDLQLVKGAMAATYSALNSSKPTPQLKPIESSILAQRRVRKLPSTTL
The method, then:
as §1

The next assay deals with T3, RPS6KA3_Dom1 (Homo sapiens, UniProt P51812).
T3 construct: gene RPS6KA3; Kin.Dom.1 N-terminal
The method, then:
as §1

The next assay concerns the target T4, RPS6KA6_Dom1 (Homo sapiens, UniProt Q9UK32).
T4 construct: gene RPS6KA6; Kin.Dom.1 N-terminal
The method, then:
as §1

CDK7, sequence (P50613 whole entry): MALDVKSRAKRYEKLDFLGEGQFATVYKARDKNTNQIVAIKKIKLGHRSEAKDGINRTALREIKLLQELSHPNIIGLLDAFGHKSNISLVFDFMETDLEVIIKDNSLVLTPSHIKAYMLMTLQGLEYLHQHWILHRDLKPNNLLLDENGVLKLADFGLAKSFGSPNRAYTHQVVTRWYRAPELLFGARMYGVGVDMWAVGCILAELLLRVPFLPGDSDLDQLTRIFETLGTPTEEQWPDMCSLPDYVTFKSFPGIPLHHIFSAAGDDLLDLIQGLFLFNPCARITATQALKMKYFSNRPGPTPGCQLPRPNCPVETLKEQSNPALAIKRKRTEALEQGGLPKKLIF
AAK1, sequence (Q2M2I8 whole entry): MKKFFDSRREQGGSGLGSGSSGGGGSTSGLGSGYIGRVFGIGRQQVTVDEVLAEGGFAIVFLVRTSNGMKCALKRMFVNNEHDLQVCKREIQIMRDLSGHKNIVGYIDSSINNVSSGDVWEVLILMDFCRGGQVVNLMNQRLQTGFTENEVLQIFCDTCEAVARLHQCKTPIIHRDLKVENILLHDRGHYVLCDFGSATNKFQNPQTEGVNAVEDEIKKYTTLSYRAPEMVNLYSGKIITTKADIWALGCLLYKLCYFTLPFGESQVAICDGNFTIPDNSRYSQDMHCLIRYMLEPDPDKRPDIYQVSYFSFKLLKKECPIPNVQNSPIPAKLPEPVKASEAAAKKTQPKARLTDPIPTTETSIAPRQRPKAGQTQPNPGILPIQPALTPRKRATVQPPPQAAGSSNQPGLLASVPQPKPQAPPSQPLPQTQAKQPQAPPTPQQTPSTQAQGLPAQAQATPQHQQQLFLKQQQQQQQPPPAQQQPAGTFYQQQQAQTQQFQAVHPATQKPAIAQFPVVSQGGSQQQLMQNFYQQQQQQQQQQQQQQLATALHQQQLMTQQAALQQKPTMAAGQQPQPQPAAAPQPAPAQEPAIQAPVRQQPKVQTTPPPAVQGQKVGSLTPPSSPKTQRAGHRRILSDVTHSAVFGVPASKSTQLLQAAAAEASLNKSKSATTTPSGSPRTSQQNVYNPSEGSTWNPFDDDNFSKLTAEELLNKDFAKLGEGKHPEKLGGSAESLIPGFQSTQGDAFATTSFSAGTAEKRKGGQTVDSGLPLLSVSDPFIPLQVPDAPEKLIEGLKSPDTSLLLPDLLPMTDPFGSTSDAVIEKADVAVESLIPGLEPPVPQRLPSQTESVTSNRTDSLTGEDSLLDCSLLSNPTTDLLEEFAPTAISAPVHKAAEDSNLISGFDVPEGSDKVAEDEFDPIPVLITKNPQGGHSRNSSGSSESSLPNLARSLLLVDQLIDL
RIOK3, sequence (O14730 whole entry): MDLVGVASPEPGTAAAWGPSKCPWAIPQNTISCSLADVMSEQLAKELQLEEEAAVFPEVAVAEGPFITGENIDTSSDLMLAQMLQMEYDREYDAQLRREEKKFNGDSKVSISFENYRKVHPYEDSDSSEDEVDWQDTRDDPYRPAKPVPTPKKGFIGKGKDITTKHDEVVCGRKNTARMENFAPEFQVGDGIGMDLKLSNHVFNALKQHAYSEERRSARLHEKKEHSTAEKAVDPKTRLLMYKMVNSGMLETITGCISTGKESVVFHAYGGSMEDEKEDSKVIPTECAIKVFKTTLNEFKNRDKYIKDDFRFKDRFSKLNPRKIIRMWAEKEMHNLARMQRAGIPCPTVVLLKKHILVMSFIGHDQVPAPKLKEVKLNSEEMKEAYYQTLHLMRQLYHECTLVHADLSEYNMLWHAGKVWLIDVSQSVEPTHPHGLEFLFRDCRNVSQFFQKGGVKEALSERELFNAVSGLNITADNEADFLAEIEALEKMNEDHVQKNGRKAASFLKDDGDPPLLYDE
PIP5K1A, sequence (Q99755 whole entry): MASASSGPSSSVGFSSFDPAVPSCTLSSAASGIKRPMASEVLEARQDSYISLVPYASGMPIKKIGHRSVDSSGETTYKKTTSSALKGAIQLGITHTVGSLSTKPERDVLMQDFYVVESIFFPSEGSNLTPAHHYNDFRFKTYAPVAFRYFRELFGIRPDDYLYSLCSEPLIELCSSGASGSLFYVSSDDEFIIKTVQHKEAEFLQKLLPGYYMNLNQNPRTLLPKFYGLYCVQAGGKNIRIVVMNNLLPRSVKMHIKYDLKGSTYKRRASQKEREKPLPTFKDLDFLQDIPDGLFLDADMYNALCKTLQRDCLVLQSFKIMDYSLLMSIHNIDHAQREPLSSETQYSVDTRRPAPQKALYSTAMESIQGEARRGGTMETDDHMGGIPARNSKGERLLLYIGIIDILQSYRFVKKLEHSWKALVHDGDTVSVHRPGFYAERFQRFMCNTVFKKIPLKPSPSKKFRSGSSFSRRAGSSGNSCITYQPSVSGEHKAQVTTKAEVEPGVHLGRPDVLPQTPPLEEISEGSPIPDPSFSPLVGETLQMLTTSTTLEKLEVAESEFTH

Regarding `COc1cc(Nc2cncc(-c3ccc(N)cc3)n2)cc(OC)c1OC` [APA, 6-(4-aminophenyl)-N-(3,4,5-trimethoxyphenyl)pyrazin-2-amine], the remaining binding at 10 µM was 45% on AAK1; 14% on ABL2; 49% on CDK7; 7.8% at DYRK1A; 63% on DYRK2; 6.9% on GSG2. For the same molecule, the remaining binding at 10 µM on KDR was determined as 7.1%; on NTRK3 it was 11%; on PIP4K2B, 20%; on PIP5K1A it was 52%; at RIOK3 it was 21%; on RPS6KA1_Dom1, 56%. In addition, the values for the remaining binding at 10 µM at RPS6KA3_Dom1 and at RPS6KA6_Dom1 were 39% and 58%, respectively.
